Assay results as given in patent publication US9777005B2 (Takeda Pharmaceutical Company Limited, priority 2012, dated 2017).

Biological target: T1, human M1 receptor (hCHRM1) (Homo sapiens, UniProt P11229)
T1 construct: expressed in transfected cells; host or cells: CHO-K1
T1 sequence (P11229 1-460): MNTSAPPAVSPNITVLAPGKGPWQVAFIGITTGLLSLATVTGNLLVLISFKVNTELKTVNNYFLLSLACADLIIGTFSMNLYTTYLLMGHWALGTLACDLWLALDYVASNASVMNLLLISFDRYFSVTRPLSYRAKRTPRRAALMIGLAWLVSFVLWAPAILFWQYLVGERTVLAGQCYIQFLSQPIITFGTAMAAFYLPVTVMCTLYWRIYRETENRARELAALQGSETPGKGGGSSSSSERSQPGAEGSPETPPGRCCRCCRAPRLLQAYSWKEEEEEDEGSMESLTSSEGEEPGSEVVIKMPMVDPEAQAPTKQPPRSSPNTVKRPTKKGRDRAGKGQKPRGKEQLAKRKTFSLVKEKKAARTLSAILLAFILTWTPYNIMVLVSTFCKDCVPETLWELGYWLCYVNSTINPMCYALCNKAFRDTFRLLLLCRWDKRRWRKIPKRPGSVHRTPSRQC
Test: Measurement of M1 receptor positive allosteric modulator (M1PAM) activity, calcium fluorescence (FLIPRtetra) in CHO-K1 cells in the presence of acetylcholine at EC20
Assay type: cell-based
Conditions: in the presence of acetylcholine at EC20 (final 0.6 nM), CHO-K1 cells expressing hCHRM1; for EC50: inflection point of M1PAM activity, read-out: IP value; for activity (%) at 10 μM: test compound 10 μM
In short: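 CHO-K1 cells expressing human M1 were loaded with Fluo-4 AM, and compound was added with acetylcholine at EC20 (final 0.6 nM). Calcium fluorescence was read on FLIPRtetra for 1 min. Activity was normalized to 1 μM acetylcholine (100%) and DMSO (0%), and the curve inflection point was reported as IP.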

| EC50 | activity (%) at 10 μM | SMILES |
| --- | --- | --- |
| 26 nM | 110% | Cc1nn(C)cc1-c1ccc(CN2Cc3ccnc(Oc4c(F)cccc4Cl)c3C2=O)c(F)c1 [Example 280, 4-(2-chloro-6-fluorophenoxy)-2-(4-(1,3-dimethyl-1H-pyrazol-4-yl)-2-fluorobenzyl)-1,2-dihydro-3H-pyrrolo[3,4-c]pyridin-3-one] |
| 65 nM | 108% | Cc1nn(C)cc1-c1ccc(CN2Cc3ccnc(Oc4c(F)cccc4Cl)c3C2=O)cc1 [Example 281, 4-(2-chloro-6-fluorophenoxy)-2-(4-(1,3-dimethyl-1H-pyrazol-4-yl)benzyl)-1,2-dihydro-3H-pyrrolo[3,4-c]pyridin-3-one] |
| 10 nM | 97% | COc1ccc(F)c(Oc2nccc3c2C(=O)N(Cc2ccc(-c4cn(C)nc4C)cc2F)C3)c1F [Example 283, 4-(2,6-difluoro-3-methoxyphenoxy)-2-(4-(1,3-dimethyl-1H-pyrazol-4-yl)-2-fluorobenzyl)-1,2-dihydro-3H-pyrrolo[3,4-c]pyridin-3-one] |
| 340 nM | 94% | O=C1c2c(ccnc2OCC2CCCO2)CN1Cc1ccc(Br)cc1 (stereo not drawn) [Example 284, 2-(4-bromobenzyl)-4-((tetrahydrofuran-2-yl)methoxy)-1,2-dihydro-3H-pyrrolo[3,4-c]pyridin-3-one] |
| 10 nM | 95% | Cn1cc(-c2ccc(CN3Cc4ccnc(OCC5CCCO5)c4C3=O)cc2)cn1 (stereo not drawn) [Example 285] |
| 13 nM | 99% | O=C1c2c(ccnc2OCC2CCCO2)CN1Cc1ccc(-c2cn[nH]c2)cc1 (stereo not drawn) [Example 286, 2-(4-(1H-pyrazol-4-yl)benzyl)-4-((tetrahydrofuran-2-yl)methoxy)-1,2-dihydro-3H-pyrrolo[3,4-c]pyridin-3-one] |
| 10 nM | 99% | O=C1c2c(ccnc2OCC2CCCO2)CN1Cc1ccc(-c2cnn(CC(F)(F)F)c2)cc1 (stereo not drawn) [Example 287, 4-((tetrahydrofuran-2-yl)methoxy)-2-(4-(1-(2,2,2-trifluoroethyl)-1H-pyrazol-4-yl)benzyl)-1,2-dihydro-3H-pyrrolo[3,4-c]pyridin-3-one] |
| 12 nM | 103% | O=C1c2c(ccnc2OCC2CCCO2)CN1Cc1ccc(-c2cnn(CC3CC3)c2)cc1 (stereo not drawn) [Example 288, 2-(4-(1-(cyclopropylmethyl)-1H-pyrazol-4-yl)benzyl)-4-((tetrahydrofuran-2-yl)methoxy)-1,2-dihydro-3H-pyrrolo[3,4-c]pyridin-3-one] |
| 4.7 nM | 89% | O=C1c2c(ccnc2OCC2CCCO2)CN1Cc1ccc(-c2cnn3ccccc23)cc1 (stereo not drawn) [Example 289, 2-(4-(pyrazolo[1,5-a]pyridin-3-yl)benzyl)-4-((tetrahydrofuran-2-yl)methoxy)-1,2-dihydro-3H-pyrrolo[3,4-c]pyridin-3-one] |
| 44 nM | 91% | Cc1cc(-c2ccc(CN3Cc4ccnc(Oc5cc(CO)ccc5F)c4C3=O)cc2)ccn1 [Example 290, 4-(2-fluoro-5-(hydroxymethyl)phenoxy)-2-(4-(2-methylpyridin-4-yl)benzyl)-1,2-dihydro-3H-pyrrolo[3,4-c]pyridin-3-one] |
| 34 nM | 91% | COCc1ccc(F)c(Oc2nccc3c2C(=O)N(Cc2ccc(-c4ccnc(C)c4)cc2)C3)c1 [Example 291, 4-(2-fluoro-5-(methoxymethyl)phenoxy)-2-(4-(2-methylpyridin-4-yl)benzyl)-1,2-dihydro-3H-pyrrolo[3,4-c]pyridin-3-one] |
| 12 nM | 92% | O=C1c2c(ccnc2OCC2CCCO2)CN1Cc1ccc(-c2cnn3c2CCCC3)cc1 (stereo not drawn) [Example 296, 4-((tetrahydrofuran-2-yl)methoxy)-2-(4-(4,5,6,7-tetrahydropyrazolo[1,5-a]pyridin-3-yl)benzyl)-1,2-dihydro-3H-pyrrolo[3,4-c]pyridin-3-one] |

Further lines, the compound ahead of its results:

| SMILES | EC50 | activity (%) at 10 μM |
| --- | --- | --- |
| Cn1cc(-c2ccc(CN3Cc4ccnc(Oc5c(F)cccc5Cl)c4C3=O)cc2)nn1 [Example 231, 4-(2-chloro-6-fluorophenoxy)-2-(4-(1-methyl-1H-1,2,3-triazol-4-yl)benzyl)-1,2-dihydro-3H-pyrrolo[3,4-c]pyridin-3-one] | 24 nM | 106% |
| O=C1c2c(ccnc2OCC2CCCO2)CN1Cc1ccc(-n2cc(F)cn2)cc1 (stereo not drawn) [Example 234, 2-(4-(4-fluoro-1H-pyrazol-1-yl)benzyl)-4-((tetrahydrofuran-2-yl)methoxy)-1,2-dihydro-3H-pyrrolo[3,4-c]pyridin-3-one] | 38 nM | 91% |
| Cc1nn(C)cc1-c1ccc(CN2Cc3cccc(O[C@@H]4COCC[C@H]4O)c3C2=O)cc1 [Example 251, 1,5-anhydro-2-deoxy-4-O-(2-(4-(1,3-dimethyl-1H-pyrazol-4-yl)benzyl)-3-oxo-2,3-dihydro-1H-isoindol-4-yl)-threo-pentitol] | 7.5 nM | 117% |
| Cc1nn(C)cc1-c1ccc(CN2Cc3ccnc(OCC4CCCCO4)c3C2=O)cc1 (stereo not drawn) [Example 252, 2-(4-(1,3-dimethyl-1H-pyrazol-4-yl)benzyl)-4-((tetrahydro-2H-pyran-2-yl)methoxy)-1,2-dihydro-3H-pyrrolo[3,4-c]pyridin-3-one] | 7.6 nM | 99% |
| Cn1ccc(-c2ccc(CN3Cc4ccnc(OCC5CCCCO5)c4C3=O)cc2)n1 (stereo not drawn) [Example 253, 2-(4-(1-methyl-1H-pyrazol-3-yl)benzyl)-4-((tetrahydro-2H-pyran-2-yl)methoxy)-1,2-dihydro-3H-pyrrolo[3,4-c]pyridin-3-one] | 22 nM | 100% |
| Cn1cc(-c2ccc(CN3Cc4ccnc(OCCC5CC5)c4C3=O)cc2)nn1 [Example 254, 4-(2-cyclopropylethoxy)-2-(4-(1-methyl-1H-1,2,3-triazol-4-yl)benzyl)-1,2-dihydro-3H-pyrrolo[3,4-c]pyridin-3-one] | 67 nM | 110% |
| Cn1cc(-c2ccc(CN3Cc4ccnc(OCCC5CC5)c4C3=O)c(F)c2)nn1 [Example 260, 4-(2-cyclopropylethoxy)-2-(2-fluoro-4-(1-methyl-1H-1,2,3-triazol-4-yl)benzyl)-1,2-dihydro-3H-pyrrolo[3,4-c]pyridin-3-one] | 45 nM | 109% |
| CCC(O)COc1cccc2c1C(=O)N(Cc1ccc(-c3cnn(C)c3)cc1)C2 (stereo not drawn) [Example 261, 7-(2-hydroxybutoxy)-2-(4-(1-methyl-1H-pyrazol-4-yl)benzyl)isoindolin-1-one] | 25 nM | 98% |
| Cc1nn(C)cc1-c1ccc(CN2Cc3ccnc(OCC4CCOCC4)c3C2=O)c(F)c1 [Example 262, 2-(4-(1,3-dimethyl-1H-pyrazol-4-yl)-2-fluorobenzyl)-4-((tetrahydro-2H-pyran-4-yl)methoxy)-1,2-dihydro-3H-pyrrolo[3,4-c]pyridin-3-one] | 54 nM | 107% |
| Cn1cc(-c2ccc(CN3Cc4ccnc(OCC5CCC5)c4C3=O)c(F)c2)nn1 [Example 263, 4-(cyclobutylmethoxy)-2-(2-fluoro-4-(1-methyl-1H-1,2,3-triazol-4-yl)benzyl)-1,2-dihydro-3H-pyrrolo[3,4-c]pyridin-3-one] | 41 nM | 106% |
| Cc1cc(-c2cnc(CN3Cc4cccc(Oc5c(F)cccc5F)c4C3=O)c(F)c2)ccn1 [Example 264, 7-(2,6-difluorophenoxy)-2-((5-fluoro-2′-methyl-3,4′-bipyridin-6-yl)methyl)isoindolin-1-one] | 140 nM | 92% |
| Cc1nn(C)cc1-c1ccc(CN2Cc3ccnc(OCC4CCOC4)c3C2=O)cc1 (stereo not drawn) [Example 265, 2-(4-(1,3-dimethyl-1H-pyrazol-4-yl)benzyl)-4-((tetrahydrofuran-3-yl)methoxy)-1,2-dihydro-3H-pyrrolo[3,4-c]pyridin-3-one] | 24 nM | 96% |
| Cc1cc(-c2ccc(CN3Cc4ccnc(OCC5CCOC5)c4C3=O)cc2)ccn1.Cl (stereo not drawn) [Example 266, 2-(4-(2-methylpyridin-4-yl)benzyl)-4-((tetrahydrofuran-3-yl)methoxy)-1,2-dihydro-3H-pyrrolo[3,4-c]pyridin-3-one hydrochloride] | 45 nM | 100% |
| Cn1ccc(-c2ccc(CN3Cc4cccc(O[C@@H]5CCOC[C@H]5O)c4C3=O)cc2)n1 [Example 272, 1,5-anhydro-2-deoxy-3-O-(2-(4-(1-methyl-1H-pyrazol-3-yl)benzyl)-3-oxo-2,3-dihydro-1H-isoindol-4-yl)-threo-pentitol] | 6.5 nM | 107% |
| Cn1ccc(-c2ccc(CN3Cc4cccc(O[C@@H]5COCC[C@H]5O)c4C3=O)cc2)n1 [Example 273, 1,5-anhydro-2-deoxy-4-O-(2-(4-(1-methyl-1H-pyrazol-3-yl)benzyl)-3-oxo-2,3-dihydro-1H-isoindol-4-yl)-threo-pentitol] | 8.5 nM | 103% |
